Laboratory results as given in publication PMC10681040 (Bioorganic chemistry, 2023).

These compounds were tested against human nCDase (extracellular region, residues 99–780) (Homo sapiens, UniProt Q9NR71) (assay: RBM biochemical nCDase enzymatic activity assay). Conditions: qualitative; data not shown for valproate, anacardamate, MG149.
Sequence of human nCDase (extracellular region, residues 99–780) (Q9NR71 99-780): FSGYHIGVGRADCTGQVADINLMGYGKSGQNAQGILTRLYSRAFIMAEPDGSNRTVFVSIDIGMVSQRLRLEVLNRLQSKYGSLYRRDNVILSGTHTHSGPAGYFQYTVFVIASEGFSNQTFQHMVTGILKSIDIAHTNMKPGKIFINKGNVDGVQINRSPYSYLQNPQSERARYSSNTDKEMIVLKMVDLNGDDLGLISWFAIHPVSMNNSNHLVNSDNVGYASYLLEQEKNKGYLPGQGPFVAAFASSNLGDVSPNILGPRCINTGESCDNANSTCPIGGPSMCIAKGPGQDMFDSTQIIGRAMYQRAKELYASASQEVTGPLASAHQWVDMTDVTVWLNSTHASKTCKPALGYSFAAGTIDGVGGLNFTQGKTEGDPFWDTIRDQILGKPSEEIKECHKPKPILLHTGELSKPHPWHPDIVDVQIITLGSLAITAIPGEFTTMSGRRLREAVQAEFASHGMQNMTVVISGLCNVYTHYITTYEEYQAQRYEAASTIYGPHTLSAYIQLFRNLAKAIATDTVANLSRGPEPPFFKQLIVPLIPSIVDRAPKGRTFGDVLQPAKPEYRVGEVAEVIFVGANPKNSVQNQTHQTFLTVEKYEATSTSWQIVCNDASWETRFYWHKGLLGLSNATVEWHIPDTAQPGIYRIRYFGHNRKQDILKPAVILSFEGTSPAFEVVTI

| Compound | nCDase inhibitory activity (in words) |
| --- | --- |
| CCCCCCCc1ccc(CCc2cccc(O)c2C(=O)O)cc1 [MG149] | exhibited nCDase inhibitory activity |
| CC(/C=C/C(=O)NO)=C\[C@@H](C)C(=O)c1ccc(N(C)C)cc1 [Trichostatin A] | nCDase inhibitory activity |
| CCCC(CCC)C(=O)O [valproate] | exhibited nCDase inhibitory activity |
| anacardamate | exhibited nCDase inhibitory activity |
